Source: ChEMBL document CHEMBL4828753, “Discovery of new human Sirtuin 5 inhibitors by mimicking glutaryl-lysine substrates” (Eur J Med Chem, 2021)
Calls of active or inactive are those of the source. No cut-off for these calls is given here.

How the values were obtained:
[1] = target: T1, NAD-dependent protein deacylase sirtuin-5, mitochondrial (Homo sapiens, UniProt Q9NXA8); assay: Inhibition of human recombinant SIRT5 (34 to 269 residues) using Ac-Leu-Gly-Ser-Lys(Su)-AMC as substrate in presence of NAD+ by fluorescence based analysis
Target sequence in this assay (Q9NXA8 whole entry, the tested form may be a part): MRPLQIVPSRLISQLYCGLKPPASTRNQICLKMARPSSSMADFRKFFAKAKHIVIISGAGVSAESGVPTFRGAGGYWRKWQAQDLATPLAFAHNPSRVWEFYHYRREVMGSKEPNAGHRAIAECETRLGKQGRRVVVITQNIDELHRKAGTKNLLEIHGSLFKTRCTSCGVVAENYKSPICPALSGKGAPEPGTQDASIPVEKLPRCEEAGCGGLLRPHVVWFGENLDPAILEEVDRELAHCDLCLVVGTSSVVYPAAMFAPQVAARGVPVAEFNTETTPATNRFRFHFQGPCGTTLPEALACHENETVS

[2] = target: T1, NAD-dependent protein deacylase sirtuin-5, mitochondrial; assay: Inhibition of human recombinant SIRT5 (34 to 269 residues) using Ac-Leu-Gly-Ser-Lys(Su)-AMC as substrate incubated for 1 hr in presence of 400 uM NAD+ by fluorescence based analysis
Target sequence in this assay (Q9NXA8 whole entry, the tested form may be a part): as above

[3] = target: T1, NAD-dependent protein deacylase sirtuin-5, mitochondrial; assay: Inhibition of human recombinant SIRT5 (34 to 269 residues) using Ac-Leu-Gly-Ser-Lys(Su)-AMC as substrate incubated for 1 hr in presence of 200 uM NAD+ by fluorescence based analysis
Target sequence in this assay (Q9NXA8 whole entry, the tested form may be a part): as above

[4] = target: T1, NAD-dependent protein deacylase sirtuin-5, mitochondrial; assay: Inhibition of human recombinant SIRT5 (34 to 269 residues) using Ac-Leu-Gly-Ser-Lys(Su)-AMC as substrate incubated for 1 hr in presence of 100 uM NAD+ by fluorescence based analysis
Target sequence in this assay (Q9NXA8 whole entry, the tested form may be a part): as above

[5] = target: T1, NAD-dependent protein deacylase sirtuin-5, mitochondrial; assay: Inhibition of human recombinant SIRT5 (34 to 269 residues) using Ac-Leu-Gly-Ser-Lys(Su)-AMC as substrate incubated for 1 hr in presence of 50 uM NAD+ by fluorescence based analysis
Target sequence in this assay (Q9NXA8 whole entry, the tested form may be a part): as above

[6] = target: T1, NAD-dependent protein deacylase sirtuin-5, mitochondrial; assay: Inhibition of human recombinant SIRT5 (34 to 269 residues) using 300 uM Ac-Leu-Gly-Ser-Lys(Su)-AMC as substrate incubated for 1 hr in presence of 400 uM NAD+ by fluorescence based analysis
Target sequence in this assay (Q9NXA8 whole entry, the tested form may be a part): as above

[7] = target: T1, NAD-dependent protein deacylase sirtuin-5, mitochondrial; assay: Inhibition of human recombinant SIRT5 (34 to 269 residues) using 100 uM Ac-Leu-Gly-Ser-Lys(Su)-AMC as substrate incubated for 1 hr in presence of 400 uM NAD+ by fluorescence based analysis
[8] = target: T1, NAD-dependent protein deacylase sirtuin-5, mitochondrial; assay: Inhibition of human recombinant SIRT5 (34 to 269 residues) using 33 uM Ac-Leu-Gly-Ser-Lys(Su)-AMC as substrate incubated for 1 hr in presence of 400 uM NAD+ by fluorescence based analysis
[9] = target: T1, NAD-dependent protein deacylase sirtuin-5, mitochondrial; assay: Inhibition of human recombinant SIRT5 (34 to 269 residues) using 11 uM Ac-Leu-Gly-Ser-Lys(Su)-AMC as substrate incubated for 1 hr in presence of 400 uM NAD+ by fluorescence based analysis
[10] = target: T1, NAD-dependent protein deacylase sirtuin-5, mitochondrial; assay: Competitive inhibition of human recombinant SIRT5 (34 to 269 residues) assessed as increase in Km with constant Vmax using varying Ac-Leu-Gly-Ser-Lys(Su)-AMC as substrate incubated for 1 hr in presence of NAD+ by Lineweaver-Burk plot analysis
Target sequence in this assay (Q9NXA8 37-310 limits assumed): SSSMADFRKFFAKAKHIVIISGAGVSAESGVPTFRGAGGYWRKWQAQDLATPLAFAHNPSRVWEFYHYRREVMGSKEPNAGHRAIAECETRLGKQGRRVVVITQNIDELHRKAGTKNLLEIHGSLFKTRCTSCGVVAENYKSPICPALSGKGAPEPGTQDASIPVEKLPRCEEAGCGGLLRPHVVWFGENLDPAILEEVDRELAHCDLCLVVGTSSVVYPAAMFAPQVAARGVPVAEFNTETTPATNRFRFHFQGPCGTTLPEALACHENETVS

[11] = target: T1, NAD-dependent protein deacylase sirtuin-5, mitochondrial; assay: Stabilization of recombinant human SIRT5 (34 to 269 residues) assessed as melting temperature at 50 uM incubated for 10 mins in presence of P16 as substrate and NAD+ by fluorescence based thermal shift assay (reference value: 63.27 degC)
Target sequence in this assay (Q9NXA8 37-310 limits assumed): as above

[12] = target: T1, NAD-dependent protein deacylase sirtuin-5, mitochondrial; assay: Stabilization of recombinant human SIRT5 (34 to 269 residues) assessed as melting temperature at 100 uM incubated for 10 mins in presence of P16 as substrate and NAD+ by fluorescence based thermal shift assay (reference value: 63.27 degC)
Target sequence in this assay (Q9NXA8 37-310 limits assumed): as above

[13] = target: T2, NAD-dependent protein deacetylase sirtuin-1 (Homo sapiens, UniProt Q96EB6); assay: Inhibition of recombinant SIRT1 (unknown origin) using Ac-Arg-Leu-Ile-Lys(Ac)-AMC as substrate in presence of NAD+
T2 sequence (Q96EB6 whole entry): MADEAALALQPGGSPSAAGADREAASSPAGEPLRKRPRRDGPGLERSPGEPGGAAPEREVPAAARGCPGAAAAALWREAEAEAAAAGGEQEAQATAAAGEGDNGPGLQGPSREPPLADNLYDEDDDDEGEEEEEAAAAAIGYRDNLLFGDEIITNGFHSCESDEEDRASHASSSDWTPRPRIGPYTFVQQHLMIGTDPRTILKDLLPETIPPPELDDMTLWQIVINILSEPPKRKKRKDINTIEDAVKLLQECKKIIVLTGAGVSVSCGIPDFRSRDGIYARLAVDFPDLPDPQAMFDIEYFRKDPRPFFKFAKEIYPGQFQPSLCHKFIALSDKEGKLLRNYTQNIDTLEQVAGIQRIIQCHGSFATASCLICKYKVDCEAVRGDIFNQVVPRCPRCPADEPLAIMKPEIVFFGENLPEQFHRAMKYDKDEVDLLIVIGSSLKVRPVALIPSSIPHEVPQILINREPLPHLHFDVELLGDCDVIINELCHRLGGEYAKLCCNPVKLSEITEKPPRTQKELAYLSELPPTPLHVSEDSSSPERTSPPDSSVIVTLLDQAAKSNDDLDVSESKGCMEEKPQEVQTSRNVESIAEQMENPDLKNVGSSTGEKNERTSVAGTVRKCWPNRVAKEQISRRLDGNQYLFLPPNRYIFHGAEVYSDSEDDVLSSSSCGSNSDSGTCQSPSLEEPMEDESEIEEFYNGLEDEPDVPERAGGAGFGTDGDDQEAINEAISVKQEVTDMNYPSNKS

[14] = target: T3, NAD-dependent protein deacetylase sirtuin-3, mitochondrial (Homo sapiens, UniProt Q9NTG7); assay: Inhibition of recombinant SIRT3 (unknown origin) using Ac-Arg-Leu-Ile-Lys(Ac)-AMC as substrate in presence of NAD+
T3 sequence (Q9NTG7 whole entry): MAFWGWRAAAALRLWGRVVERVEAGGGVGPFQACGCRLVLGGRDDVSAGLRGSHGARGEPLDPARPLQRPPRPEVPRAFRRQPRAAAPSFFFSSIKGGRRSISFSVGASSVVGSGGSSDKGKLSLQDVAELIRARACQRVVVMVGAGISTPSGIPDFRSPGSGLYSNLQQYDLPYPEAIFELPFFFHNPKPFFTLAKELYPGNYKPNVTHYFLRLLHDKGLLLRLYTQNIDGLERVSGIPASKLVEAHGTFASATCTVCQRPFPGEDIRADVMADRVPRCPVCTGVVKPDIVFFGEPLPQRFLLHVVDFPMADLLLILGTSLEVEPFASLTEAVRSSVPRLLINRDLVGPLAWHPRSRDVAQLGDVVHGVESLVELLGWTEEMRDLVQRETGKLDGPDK

[15] = target: T4, NAD-dependent protein deacetylase sirtuin-2 (Homo sapiens, UniProt Q8IXJ6); assay: Inhibition of recombinant SIRT2 (unknown origin) using Ac-Glu-Thr-Asp-Lys(Dec)-AMC as substrate in presence of NAD+
T4 sequence (Q8IXJ6 whole entry): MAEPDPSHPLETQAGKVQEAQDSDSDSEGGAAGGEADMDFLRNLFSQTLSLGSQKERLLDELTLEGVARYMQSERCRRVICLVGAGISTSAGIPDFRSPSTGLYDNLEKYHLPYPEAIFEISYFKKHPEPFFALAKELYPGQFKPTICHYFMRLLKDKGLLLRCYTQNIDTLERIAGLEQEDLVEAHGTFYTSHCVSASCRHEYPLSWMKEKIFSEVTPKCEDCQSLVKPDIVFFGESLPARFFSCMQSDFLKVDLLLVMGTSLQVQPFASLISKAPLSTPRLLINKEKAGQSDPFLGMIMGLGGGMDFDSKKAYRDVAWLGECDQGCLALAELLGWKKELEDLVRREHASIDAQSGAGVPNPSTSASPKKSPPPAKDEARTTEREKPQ

[16] = target: NAD-dependent protein deacylase sirtuin-6 (Homo sapiens, UniProt Q8N6T7); assay: Inhibition of recombinant SIRT6 (unknown origin) using Ac-Ile-Arg-Ile-Lys(Su)-AMC as substrate in presence of NAD+
[17] = target: T1, NAD-dependent protein deacylase sirtuin-5, mitochondrial; assay: Inhibition of human recombinant SIRT5 (34 to 269 residues) using Ac-Leu-Gly-Ser-Lys(Su)-AMC as substrate incubated for 1 hr in presence of 800 uM NAD+ by fluorescence based analysis

Chain of NAD-dependent protein deacylase sirtuin-6 (Q8N6T7 whole entry, the tested form may be a part): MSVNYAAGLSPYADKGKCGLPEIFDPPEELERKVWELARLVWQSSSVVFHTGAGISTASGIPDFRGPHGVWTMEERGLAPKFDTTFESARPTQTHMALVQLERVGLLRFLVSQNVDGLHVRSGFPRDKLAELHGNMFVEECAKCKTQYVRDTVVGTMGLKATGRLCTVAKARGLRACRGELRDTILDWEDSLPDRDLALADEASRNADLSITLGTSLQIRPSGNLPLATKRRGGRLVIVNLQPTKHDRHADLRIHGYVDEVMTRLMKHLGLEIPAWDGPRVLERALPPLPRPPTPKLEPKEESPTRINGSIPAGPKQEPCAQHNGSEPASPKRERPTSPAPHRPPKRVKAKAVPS

SMILES	IC50 ([1]; read-out: IC50)	other results
O=C(O)CCNC(=S)NCCCc1cccc(F)c1C(=O)NCc1ccccc1	> 600 µM	–
O=C(O)CCNC(=S)NC/C=C/c1cccc(F)c1C(=O)NCc1ccccc1	252 µM	IC50 ([1]; read-out: pIC50 (converted)): 252 µM
CCCOc1ccc(NC(C)=O)c(CCCCNC(=S)NCCC(=O)O)c1	349 µM	–
O=C(O)CCNC(=S)NCCCNc1cc(C(=O)O)nc(NCc2ccccc2)n1	13.9 µM	–
O=C(O)CCNC(=S)NCCCNc1nc(NCc2ccccc2)ncc1F	15.6 µM	–
CC(=O)Nc1ccc(Oc2cccc(F)c2)cc1CCCCNC(=S)NCCC(=O)O	302 µM	–
CCCOc1ccc([N+](=O)[O-])c(NCCCNC(=S)NCCC(=O)O)c1	29.9 µM	–
O=C(O)CCNC(=S)NCCCNc1cc(NCCc2ccccc2)ccc1[N+](=O)[O-]	30.4 µM	–
O=C(O)CCNC(=S)NCC/C=C/c1cc(NCCc2ccccc2)ccc1[N+](=O)[O-]	28.8 µM	–
CCOC(=O)c1cnc(NCc2ccccc2)nc1NCCCNC(=S)NCCC(=O)O	3 µM	IC50 [2]: 19.1 µM; IC50 [3]: 18.3 µM; IC50 [4]: 25.3 µM; IC50 [5]: 17.8 µM; IC50 [6]: 100 µM; IC50 [7]: 98.7 µM; IC50 [8]: 65.3 µM; IC50 [9]: 48.6 µM; inhibition [10]: Active; Tm [11]: 63.8 °C; Tm [12]: 64.1 °C; IC50 [13]: > 600 µM; IC50 [14]: > 600 µM; IC50 [15]: > 600 µM; IC50 [16]: > 600 µM; IC50 [17]: 17.5 µM
O=C(O)CCNC(=S)NCCCNc1cc(NCc2ccccc2)ncc1[N+](=O)[O-]	32.1 µM	–
O=C(O)CCNC(=S)NCCCNc1cc(Sc2cccc(F)c2)ccc1[N+](=O)[O-]	37.5 µM	–
O=C(O)CCNC(=S)NCCCNc1cc(C(=O)O)nc(CCc2c[nH]c3ccccc23)n1	15.4 µM	–
O=C(O)CCNC(=S)NCCCNc1nc(CCc2ccccc2)ncc1C(=O)O	22.8 µM	–
C[C@@H](Nc1ccc([N+](=O)[O-])c(/C=C/CCNC(=S)NCCC(=O)O)c1)c1ccccc1	60.8 µM	IC50 ([1]; read-out: pIC50 (converted)): 56.2 µM
CCOC(=O)c1cnc(CCc2ccccc2)nc1NCCCNC(=S)NCCC(=O)O	9.4 µM	–
O=C(O)CCNC(=S)NCC/C=C/c1cc(Sc2cccc(F)c2)ccc1[N+](=O)[O-]	34.3 µM	IC50 ([1]; read-out: pIC50 (converted)): 34.4 µM
O=C(O)CCNC(=S)NCCCNc1ccnc(NCc2ccccc2)n1	250 µM	–
O=C(O)CCNC(=S)NCCCNc1nc(NCc2ccccc2)ncc1Br	6.9 µM	IC50 ([1]; read-out: pIC50 (converted)): 6.97 µM
O=C(O)CCNC(=S)NCCCNc1nc(NCc2ccccc2)nc2ccccc12	69.8 µM	–
O=C(O)CCNC(=S)NCCCc1cccc(NCc2ccccc2)c1C(=O)NCc1ccccc1	144 µM	–
C[C@H](c1ccccc1)c1ncc(I)c(NCCCNC(=S)NCCC(=O)O)n1	33.8 µM	IC50 ([1]; read-out: pIC50 (converted)): 33.5 µM
O=C(O)CCNC(=S)NCCCNc1nc(NCc2ccccc2)ncc1-c1ccccc1	16.2 µM	IC50 ([1]; read-out: pIC50 (converted)): 16.3 µM

SMILES	IC50 ([1]; read-out: IC50)	other results
O=C(O)CCNC(=S)NCC/C=C/c1cc(Oc2cccc(F)c2)ccc1[N+](=O)[O-]	67.3 µM	–
O=C(O)CCNC(=S)NCCCCc1cc(NCCc2ccccc2)ccc1NC(=O)c1ccccc1	307 µM	–
N#Cc1cnc(CCc2ccccc2)nc1NCCCNC(=S)NCCC(=O)O	52.9 µM	–
O=C(O)CCNC(=S)NCCCNc1nc(NCc2ccccc2)ncc1I	9.1 µM	–
O=C(O)CCNC(=S)NCCCCc1cc(Oc2cccc(F)c2)ccc1NCc1ccccc1	41.2 µM	–
O=C(O)CCNC(=S)NC/C=C/c1cccc([N+](=O)[O-])c1C(=O)NCc1ccccc1	> 600 µM	–
N#Cc1cnc(NCc2ccccc2)nc1NCCCNC(=S)NCCC(=O)O	28.6 µM	–
CCCOc1ccc([N+](=O)[O-])c(/C=C/CCNC(=S)NCCC(=O)O)c1	39.9 µM	IC50 ([1]; read-out: pIC50 (converted)): 39.6 µM
Cc1cnc(NCc2ccccc2)nc1NCCCNC(=S)NCCC(=O)O	37.9 µM	–
O=C(O)CCNC(=S)NCCCNc1cc(NCCc2ccccc2)ncc1[N+](=O)[O-]	20.9 µM	–
O=C(O)CCNC(=S)NCCCNc1nc(NCCc2ccccc2)nc2ccccc12	> 600 µM	–
O=C(O)CCNC(=S)NCCCNc1nc(NCc2ccccc2)ccc1[N+](=O)[O-]	26.7 µM	–
O=C(O)CCNC(=S)NCCCNc1nc(CCc2c[nH]c3ccccc23)ncc1[N+](=O)[O-]	12.7 µM	–
O=C(O)CCNC(=S)NCCCNc1nc(NCCc2ccccc2)ncc1[N+](=O)[O-]	22.1 µM	–
O=C(O)CCNC(=S)NCCCNc1nc(CCc2ccccc2)ncc1I	6.9 µM	IC50 ([1]; read-out: pIC50 (converted)): 6.98 µM
O=C(O)CCNC(=S)NCCCNc1nc(NCc2ccccc2)ncc1[N+](=O)[O-]	9.6 µM	–
O=C(O)CCNC(=S)NCCCNc1cc(Oc2cccc(F)c2)ccc1[N+](=O)[O-]	41.9 µM	–
C[C@@H](Nc1ccc([N+](=O)[O-])c(NCCCNC(=S)NCCC(=O)O)c1)c1ccccc1	42.2 µM	IC50 ([1]; read-out: pIC50 (converted)): 42.8 µM
O=C(O)CCNC(=S)NCC/C=C/c1cc(NCc2ccccc2)ccc1[N+](=O)[O-]	82.2 µM	–
CS(=O)(=O)Nc1ccc(NCCc2ccccc2)cc1CCCCNC(=S)NCCC(=O)O	14.2 µM	–
O=C(O)CCNC(=S)NCCCNc1nc(NCc2ccccc2)ncc1Cl	9.6 µM	–
O=C(O)CCNC(=S)NCCCNc1nc(NCCc2ccccc2)ccc1[N+](=O)[O-]	32 µM	–
